Test results reported in a melting point compilation (Tetko et al.; mined from patent text by program, amines drawn as free bases though some values may be those of a salt).

For `COc1cc(-c2nc(-n3cncn3)c3c(C)c(C#N)sc3n2)cc(OC)c1OC`, the melting point was 236 to 240 °C. `Ic1ccc2c(c1)ncn2-c1cccc(-c2cncnc2)c1` showed a melting point of 197 to 199 °C. In the case of `O=[N+]([O-])C(CO)(CO)c1ccccc1`, the melting point is reported as 96 to 97.5 °C. In the case of `CCC(O)(C#CC(O)c1ccc(SC)cc1)CC` (stereo unspecified), the melting point is reported as 64 to 65 °C. `Fc1ccc(CN2CCC(Nc3ccc(C(F)(F)F)nn3)CC2)cc1` gave a melting point of 163 to 165 °C. With `CC(C)(C)c1cc2c(c(C(C)(C)C)c1O)CCS2` the melting point was 82 °C. `CNC(=S)C1(c2cnccn2)CCCS1` (stereo unspecified) showed a melting point of 127 °C. Work on `NC(=O)C(Cc1ccccc1)NC(=O)Nc1n[nH]c(=S)s1` (stereo unspecified) yielded a melting point of 175 to 177 °C. Work on `O=C(Nc1ccc(O)cc1)C(=O)Nc1ccc(O)cc1` yielded a melting point of over 250 °C. Work on `COC(=O)Cc1sc(S)nc1C` yielded a melting point of 139 to 140 °C. With `O=C(Nc1ccccc1Oc1ccc(C(=O)O)c(C(=O)O)c1)c1cccc([N+](=O)[O-])c1` the melting point was 184 to 190 °C. In the case of `CCc1cc(Cl)cc2[nH]c(=O)c(-c3ccccc3)c(O)c12`, the melting point is reported as 284 to 288 °C. Compound `CCOC(=O)C[C@@H](CCCc1ccncc1)C(=O)N[C@H]1Cc2cn(c3ccccc23)CCOCCNC1=O` has a melting point of 203 to 205 °C. Work on `COC(=O)C1(Cc2c[nH]c3ccccc23)CC(N=[N+]=[N-])C(=O)O1` (stereo unspecified) yielded a melting point of 110 to 112 °C. Work on `COc1c(Cl)cc(OCC=C(Cl)Cl)cc1C=NO` yielded a melting point of 111 °C. For `CCC(=O)N1CCC(COc2cccc3nc(C)c(C(=O)O)c(N)c23)CC1`, the melting point was 168 to 170 °C. Work on `NC(=O)NCNC(N)=O` yielded a melting point of over 270 °C. Work on `CCOC(=O)COc1coc(CCl)cc1=O` yielded a melting point of 98 to 100 °C. With `CN(c1cccc2cc(C3=NCC(CN4CCOCC4)S3)[nH]c12)S(=O)(=O)c1cccnc1` (stereo unspecified) the melting point was 234 to 236 °C. `CCOC(=O)CCCCn1c(C(=O)NCc2nnc(C)n2-c2sc(CC)cc2C(=O)c2ccccc2Cl)cc2ccccc21` showed a melting point of 85 to 87 °C. `CCC(CC)OC(=O)c1ccc(C(=O)NS(=O)(=O)c2ccc(C(=O)NCCc3ccccc3)cc2)cn1` showed a melting point of 234 to 235 °C. For `Fc1cc(F)c2nc(CCC#Cc3ccccn3)cn2c1`, the melting point was 130 to 131 °C. Compound `COc1ccccc1C1SCCCS1` has a melting point of 127 to 128 °C. `Cn1c(=O)c2ccccc2n(Cc2ccc(F)cc2)c1=N` gave a melting point of 135 to 137 °C. Compound `CCCCCCCCOc1ccc(-c2ccc(NC(=O)N(O)C(CC)CC)cc2)cc1` has a melting point of 151 to 152 °C. With `COc1ncccc1C(=O)NCC1CCN(C[C@H]2COc3ccc(Cl)cc3O2)CC1` the melting point was 72 to 75 °C. `Cc1ccc(CN2CCC3(CC2)CSC2=C(O3)c3ccccc3C(=O)C2=O)cc1` showed a melting point of 156 to 158 °C. In the case of `CC(C)CC(NC(=O)Cc1ccc(NC(=O)Nc2ccccc2F)cc1)c1ncc(CCC(=O)O)s1` (stereo unspecified), the melting point is reported as 83 to 85 °C. With `CCOC(=O)c1cn(C2CC2)c2cc(N3C[C@@H](C)N[C@@H](C)C3)c(F)c(N)c2c1=O` the melting point was 194 to 196 °C. Work on `Nc1nc(N)c(Br)c(OCCOCP(=O)(O)O)n1` yielded a melting point of 218 °C. `Cc1cc(NS(=O)(=O)c2n[nH]c(NC=O)n2)ccc1Br` gave a melting point of 282 to 284 °C. `O=S(=O)(O)CCCCCCN1CCN(Cc2ccccc2)CC1` gave a melting point of 228 to 230 °C. With `Fc1ccc(Cn2c(NCCN3CCC(Nc4nc5ccccc5n4Cc4ccc(F)cc4)CC3)nc3ccccc32)cc1` the melting point was 197 °C. Compound `O=c1[nH]c2ccccc2n1Cc1cccnc1` has a melting point of 160 °C. Work on `c1ccc(CCOc2c3c(nc4ccccc24)CCN(Cc2ccccc2)CC3)cc1` yielded a melting point of under 20 °C. Work on `COC(=O)c1cccc2c1C(Cc1ccnc(F)c1)(Cc1ccnc(F)c1)c1ccccc1-2` yielded a melting point of 126 to 127 °C. With `CC1Cc2c(c(S(N)(=O)=O)nn2C)C(=O)O1` (stereo unspecified) the melting point was 142 to 144 °C. Work on `CC(C)Cc1nc2ccc(Cl)cc2c(-c2ccccc2)c1CO` yielded a melting point of 130 to 131 °C. Work on `CCc1cccc2c(/C(C)=C/C(=O)O)cc(OC)c(OCOC)c12` yielded a melting point of 114 to 115 °C. In the case of `NP(N)(=O)NC(=O)c1cccnc1`, the melting point is reported as 280 to 283 °C. Work on `NC(=O)c1cc(NCc2cccc(F)c2)c([N+](=O)[O-])cc1[N+](=O)[O-]` yielded a melting point of 175 to 177 °C.
